Test results published in patent publication US5360613A, “Method of reducing blood levels of total cholesterol and low-density lipoprotein cholesterol” (Iowa State University Research Foundation, Inc., priority 1993, dated 1994).

Assays:
plasma cholesterol = experiment: Lamb feeding study, plasma cholesterol (Example II, Table B); assay type: in vivo, lambs
Protocol: In view of the encouraging results of Example I, a large mammal study was carried out with lambs. HMB was administered in the form of Ca-HMB.
Cross-bred lambs were obtained from a research flock. Males were selected from a pool of 108 rams while females were selected from a pool of 63 females. Selection was based on weight range, breed and previous performance. Breeding consisted of Dorset, Polypay and Suffold crosses. Males were divided into 5 weight blocks and females into 3 weight blocks. The two heaviest male blocks contained 27 lambs, allotted to 3 pens. All other blocks contained 18 lambs, allotted to 2 pens. Animals were weighed on consecutive days prior to starting the experiment. All animals were shorn 100 days into the experiment. The animals were housed in a single confinement unit with uniform pens. The feeders were concrete bunks with water supplied by several nipple waterers per pen. Dirt flooring was bedded with oat straw when necessary. Weight blocks were placed in adjacent pens with treatment randomly assigned to the blocks. The ration was complete in all nutrients for growing sheep. The diet was formulated to contain protein in excess of the normal requirement in an effort to assure that protein was not a limiting factor for any growth response. The feeding schedule consisted of two feedings per day with the amount controlled so that the animals had eaten all the feed from the previous feeding before being fed again. Also with the feed allotment, a top-dressing of 20 g of either a control premix containing HMB was added at the equivalent of 0.5 gram per animal per day and 1.5 gram per animal per day.
Ca-HMB was prepared by minor modification of the method of Coffman, et al. J. Am. […] Each batch was given a lot number and the purity assessed by high performance liquid chromatography. A single peak was measured when HMB was chromatographed on a C18 column and eluted with 0.01M phosphate buffer, pH 7.0. […]
Blood was collected from each animal. The plasma was analyzed for cholesterol using an Abbott Spectrum Diagnostic system. […] A linear effect of HMB level was evaluated.

[1] = system: plasma cholesterol and triglycerides; experiment: Pig feeding study, plasma cholesterol and triglycerides (Example III, Table C); assay type: in vivo, pigs; conditions: for Plasma Triglycerides: control 107, ns; for Plasma Cholesterol: control 135
Protocol: A further large mammal study was carried out with pigs. Pigs comprise test animals which are more similar in certain respects to humans than ruminants.
Control: 60 g. of calcium
The pigs were housed in pens of two animals each and were allowed ad libitum access to food and water. Pigs were approximately 160 lbs. at the start of the experiment and were 240 lbs. at the end. All pigs were castrate males. At day 28 and day 43 of the experiment blood was collected from the anterior vena cava by venipuncture. Blood was collected into EDTA containing tubes, centrifuged and frozen until analyzed. At approximately 100 days of the experiment half of the animals (32) were slaughtered, and at 120 days the remaining 32 animals were slaughtered. At the time of slaughter the abdominal aorta was dissected out and external fat removed. The aorta was then split lengthwise and 1/2 fixed in formaldehyde for 48 hours. At this time aortas were removed, stretched over a 6 inch stick, washed in ethanol and stained with a lipid stain for 2 hours. After a 1 hour wash aortas were blotted and examined. All the aortas from a group were laid out on a white bench and arranged in order from least sever to most sever. The least sever had no dark red streaks on the aorta or around the small vertebral vessels leaving the aorta. The most sever lesions had multiple streaks in the middle of the aorta and dark red deposits in turbulent areas such as the branching of vessels from the aorta. The ordered aortas were then assigned a consecutive decimal number. The first (least severe) was assigned 0 and the most severe was assigned 3.2 Plasma cholesterol and triglycerides were measured by an enzyme-colorimetric assay (Sigma).
statistical analysis was accomplished by the general linear model procedure of the Statistical Analysis System (SAS). The model included the main effects of treatment and pen number. T-tests were conducted from the ANOVA standard error, to compare the HMB treatments to the control. […] It appeared that HMB can partially prevent the formation of pre-atherosclerotic lesions. No effect of KIC was noted relative to any parameter.

blood cholesterol = experiment: Controlled double-blind human study, blood cholesterol (Example IV, Table D); assay type: in vivo, humans
Protocol: In view of the findings of the foregoing examples, a human study was carried out.
In a controlled double-blind study, the effects of feeding HMB on loss of urinary nitrogen, blood cholesterol and immune function in normal humans were tested. This study also measured blood components that reflect liver, kidney and tissue metabolism. In addition further measurements of nitrogen metabolism and immune function were implemented. All measurements were made in a controlled dietary situation and under blinded conditions. Normal male subjects were used who had been screened for normalcy. Ca-HMB was administered in 250 mg capsules. The subjects were instructed to take the capsules in 4 equal doses daily (with meals and at bed time). The subject ate all their meals under controlled conditions. Normal diets were used, and the amount of the diets was controlled to maintain equal and substantially constant nitrogen intake. The subjects had blood drawn before the morning meal or before they took the morning HMB dose. Each subject was studied twice: once with a placebo and once with HMB.

[2] = HMB change net of placebo-group change

SMILES: CC(C)(O)CC(=O)O [HMB, β-hydroxy-β-methylbutyric acid]
- Plasma Cholesterol (plasma cholesterol; 0.5 g HMB daily (Ca-HMB), control 54.3, linear effect 0.05): 51.3
- Plasma Cholesterol (plasma cholesterol; 1.5 g HMB daily (Ca-HMB), control 54.3, linear effect 0.05): 48.1
- Plasma Cholesterol (plasma cholesterol; oral consumption, lambs): decreased plasma cholesterol
- Plasma Triglycerides ([1]; dietary .01%): 105 mg %
- Plasma Cholesterol ([1]; dietary .01%, HMB C vs. .01% p .14): 120 mg %
- Plasma Triglycerides ([1]; dietary .05%): 109 mg %
- Plasma Cholesterol ([1]; dietary .05%, HMB p .05, KIC ns): 118 mg %
- increase of HDL cholesterol (blood cholesterol; 2 g of HMB daily for two weeks): 11%
- reduction of LDL cholesterol (blood cholesterol; 2 g of HMB daily for two weeks): 10%
- reduction of total cholesterol (blood cholesterol; 2 g of HMB daily for two weeks): 6%
- % Net Effect HMB, HDL Cholesterol (blood cholesterol; [2]): 11%
- % Net Effect HMB, LDL Cholesterol (blood cholesterol; [2]): -10%
- % Net Effect HMB, LDL/HDL (blood cholesterol; [2]): -25%
- % Net Effect HMB, Total Cholesterol (blood cholesterol; [2]): -6%
- % Change Trt. HDL Cholesterol (blood cholesterol; control to HMB treatment): 3%
- % Change Trt. LDL Cholesterol (blood cholesterol; control to HMB treatment): -8%
- % Change Trt. LDL/HDL (blood cholesterol; control to HMB treatment): -12%
- % Change Trt. Total Cholesterol (blood cholesterol; control to HMB treatment): -10%
- decrease of ratio of LDL to HDL (blood cholesterol; in two weeks): 25%
- LDL cholesterol (blood cholesterol; treated group on HMB, Ca HMB 1.0 grams/24 hours, calculated, pre-treatment control 118): 107
- LDL/HDL (blood cholesterol; treated group on HMB, Ca HMB 1.0 grams/24 hours, pre-treatment control 2.38): 2.10
- HDL cholesterol (blood cholesterol; treated group on HMB, Ca HMB 1.0 grams/24 hours, pre-treatment control 49.5): 50.9
- Total cholesterol (blood cholesterol; treated group on HMB, Ca HMB 1.0 grams/24 hours, pre-treatment control 187): 169
